Test results from ChEMBL document CHEMBL3856246, “Pharbilignan C induces apoptosis through a mitochondria-mediated intrinsic pathway in human breast cancer cells” (Bioorg Med Chem Lett, 2016).
Active and inactive are the calls of the source. The calls are words filed in the database; no cut-off is given here.

Key:
[1] = tested on: MDA-MB-231; assay: Induction of apoptosis in human MDA-MB-231 cells assessed as caspase-9 activation upto 20 uM after 72 hrs by Western blot analysis; assay type: functional, cell-based
[2] = tested on: MDA-MB-231; assay: Induction of apoptosis in human MDA-MB-231 cells assessed as early apoptotic cells at 10 uM after 72 hrs by Annexin V-FITC/propidium iodide based flow cytometric analysis (reference value: 7.73 %); assay type: functional
[3] = tested on: MCF7; assay: Induction of apoptosis in human MCF7 cells assessed as viable cells at 10 uM after 72 hrs by Annexin V-FITC/propidium iodide based flow cytometric analysis (reference value: 94.10 %); assay type: functional; details: MCF7, 72 h, read-out: Activity
[4] = tested on: MDA-MB-231; assay: Induction of apoptosis in human MDA-MB-231 cells assessed as late apoptotic cells at 20 uM after 72 hrs by Annexin V-FITC/propidium iodide based flow cytometric analysis (reference value: 0.07 %); assay type: functional
[5] = tested on: MDA-MB-231; assay: (§1) Cytotoxicity against human MDA-MB-231 cells assessed as reduction in cell viability after 72 hrs by WST1 assay; assay type: functional, cell-based
[6] = as §1; assay type: functional, cell-based; details: MDA-MB-231, 72 h
[7] = tested on: MCF7; assay: Induction of apoptosis in human MCF7 cells assessed as necrotic cells at 20 uM after 72 hrs by Annexin V-FITC/propidium iodide based flow cytometric analysis (reference value: 3.48 %); assay type: functional
[8] = tested on: MCF7; assay: Induction of apoptosis in human MCF7 cells assessed as early apoptotic cells at 5 uM after 72 hrs by Annexin V-FITC/propidium iodide based flow cytometric analysis (reference value: 1.14 %); assay type: functional
[9] = tested on: MDA-MB-231; assay: Induction of apoptosis in human MDA-MB-231 cells assessed as early apoptotic cells at 20 uM after 72 hrs by Annexin V-FITC/propidium iodide based flow cytometric analysis (reference value: 7.73 %); assay type: functional
[10] = tested on: MCF7; assay: Induction of apoptosis in human MCF7 cells assessed as viable cells at 5 uM after 72 hrs by Annexin V-FITC/propidium iodide based flow cytometric analysis (reference value: 94.10 %); assay type: functional; details: MCF7, 72 h, read-out: Activity
[11] = Cytotoxicity against human A549 cells after 48 hrs by SRB assay; assay type: functional, cell-based; details: A549, 48 h
[12] = tested on: MDA-MB-231; assay: Induction of apoptosis in human MDA-MB-231 cells assessed as caspase-3 activation upto 20 uM after 72 hrs by Western blot analysis; assay type: functional, cell-based
[13] = Cytotoxicity against human SK-MEL-2 cells after 48 hrs by SRB assay; assay type: functional, cell-based; details: SK-MEL-2, 48 h
[14] = Induction of apoptosis in human MDA-MB-231 cells assessed as upregulation of Bax expression up to 20 uM after 72 hrs by Western blot analysis; assay type: functional, cell-based
[15] = tested on: MDA-MB-231; assay: Induction of apoptosis in human MDA-MB-231 cells assessed as late apoptotic cells at 5 uM after 72 hrs by Annexin V-FITC/propidium iodide based flow cytometric analysis (reference value: 0.07 %); assay type: functional
[16] = tested on: MCF7; assay: Induction of apoptosis in human MCF7 cells assessed as necrotic cells at 10 uM after 72 hrs by Annexin V-FITC/propidium iodide based flow cytometric analysis (reference value: 3.48 %); assay type: functional
[17] = tested on: MDA-MB-231; assay: Induction of apoptosis in human MDA-MB-231 cells assessed as downregulation of Bcl2 expression up to 20 uM after 72 hrs by Western blot analysis; assay type: functional, cell-based
[18] = Cytotoxicity against human HCT15 cells after 48 hrs by SRB assay; assay type: functional, cell-based; details: HCT-15, 48 h
[19] = tested on: MCF7; assay: Induction of apoptosis in human MCF7 cells assessed as late apoptotic cells at 5 uM after 72 hrs by Annexin V-FITC/propidium iodide based flow cytometric analysis (reference value: 1.28 %); assay type: functional
[20] = tested on: MDA-MB-231; assay: Induction of apoptosis in human MDA-MB-231 cells assessed as viable cells at 5 uM after 72 hrs by Annexin V-FITC/propidium iodide based flow cytometric analysis (reference value: 91.87 %); assay type: functional; details: MDA-MB-231, 72 h, read-out: Activity
[21] = tested on: MCF7; assay: Induction of apoptosis in human MCF7 cells assessed as early apoptotic cells at 20 uM after 72 hrs by Annexin V-FITC/propidium iodide based flow cytometric analysis (reference value: 1.14 %); assay type: functional
[22] = tested on: MDA-MB-231; assay: Induction of apoptosis in human MDA-MB-231 cells assessed as necrotic cells at 10 uM after 72 hrs by Annexin V-FITC/propidium iodide based flow cytometric analysis (reference value: 0.33 %); assay type: functional
[23] = tested on: MDA-MB-231; assay: Induction of apoptosis in human MDA-MB-231 cells assessed as early apoptotic cells at 5 uM after 72 hrs by Annexin V-FITC/propidium iodide based flow cytometric analysis (reference value: 7.73 %); assay type: functional
[24] = tested on: MCF7; assay: Induction of apoptosis in human MCF7 cells assessed as early apoptotic cells at 10 uM after 72 hrs by Annexin V-FITC/propidium iodide based flow cytometric analysis (reference value: 1.14 %); assay type: functional
[25] = tested on: MCF7; assay: Induction of apoptosis in human MCF7 cells assessed as late apoptotic cells at 20 uM after 72 hrs by Annexin V-FITC/propidium iodide based flow cytometric analysis (reference value: 1.28 %); assay type: functional
[26] = Cytotoxicity against human SKOV3 cells after 48 hrs by SRB assay; assay type: functional, cell-based; details: SK-OV-3, 48 h
[27] = tested on: MDA-MB-231; assay: Induction of apoptosis in human MDA-MB-231 cells after 72 hrs by Annexin V-FITC/propidium iodide based flow cytometric analysis; assay type: functional, cell-based
[28] = tested on: MDA-MB-231; assay: Induction of apoptosis in human MDA-MB-231 cells assessed as necrotic cells at 20 uM after 72 hrs by Annexin V-FITC/propidium iodide based flow cytometric analysis (reference value: 0.33 %); assay type: functional
[29] = tested on: MDA-MB-231; assay: Induction in apoptosis in human MDA-MB-231 cells assessed as decrease in mitochondrial membrane potential at 20 uM after 24 hrs by JC1 fluorescent dye based confocal microscopic analysis; assay type: functional, cell-based
[30] = tested on: MCF7; assay: Induction of apoptosis in human MCF7 cells assessed as viable cells at 20 uM after 72 hrs by Annexin V-FITC/propidium iodide based flow cytometric analysis (reference value: 94.10 %); assay type: functional; details: MCF7, 72 h, read-out: Activity
[31] = tested on: MDA-MB-231; assay: Induction of apoptosis in human MDA-MB-231 cells assessed as late apoptotic cells at 10 uM after 72 hrs by Annexin V-FITC/propidium iodide based flow cytometric analysis (reference value: 0.07 %); assay type: functional
[32] = tested on: MDA-MB-231; assay: Induction of apoptosis in human MDA-MB-231 cells assessed as necrotic cells at 5 uM after 72 hrs by Annexin V-FITC/propidium iodide based flow cytometric analysis (reference value: 0.33 %); assay type: functional
[33] = tested on: MDA-MB-231; assay: Induction of apoptosis in human MDA-MB-231 cells assessed as viable cells at 10 uM after 72 hrs by Annexin V-FITC/propidium iodide based flow cytometric analysis (reference value: 91.87 %); assay type: functional; details: MDA-MB-231, 72 h, read-out: Activity
[34] = tested on: MCF7; assay: Cytotoxicity against human MCF7 cells assessed as reduction in cell viability after 72 hrs by WST1 assay; assay type: functional, cell-based
[35] = tested on: MDA-MB-231; assay: Induction of apoptosis in human MDA-MB-231 cells assessed as viable cells at 20 uM after 72 hrs by Annexin V-FITC/propidium iodide based flow cytometric analysis (reference value: 91.87 %); assay type: functional; details: MDA-MB-231, 72 h, read-out: Activity
[36] = tested on: MCF7; assay: Induction of apoptosis in human MCF7 cells assessed as late apoptotic cells at 10 uM after 72 hrs by Annexin V-FITC/propidium iodide based flow cytometric analysis (reference value: 1.28 %); assay type: functional
[37] = tested on: MCF7; assay: Induction of apoptosis in human MCF7 cells assessed as necrotic cells at 5 uM after 72 hrs by Annexin V-FITC/propidium iodide based flow cytometric analysis (reference value: 3.48 %); assay type: functional

CCOC(=O)/C=C/c1cc(O)c2c(c1)[C@@H](C(=O)OCC)[C@@H](c1ccc(O)c(O)c1)O2
Activity [1]: Active | Activity [2]: 19.5% | viability at 10 µM [3]: 88.9% | Activity [4]: 3.17% | Activity [5]: Dose-dependent effect | IC50 [6]: 7000 nM | Activity [7]: 12.46% | Activity [8]: 0.68% | Activity [9]: 25.63% | viability at 5 µM [10]: 91.5% | IC50 [11]: 1420 nM | Activity [12]: Active | IC50 [13]: 200 nM | Activity [14]: Active | Activity [15]: 0.1% | Activity [16]: 9.3% | Activity [17]: Active | IC50 [18]: 140 nM | Activity [19]: 0.6% | viability at 5 µM [20]: 93% | Activity [21]: 1.22% | Activity [22]: 1.9% | Activity [23]: 6.73% | Activity [24]: 0.7% | Activity [25]: 1.38% | IC50 [26]: 160 nM | Activity [27]: Dose-dependent effect | Activity [28]: 2.87% | Activity [29]: Active | viability at 20 µM [30]: 84.9% | Activity [31]: 1.5% | Activity [32]: 0.2% | viability at 10 µM [33]: 77.1% | Activity [34]: Dose-dependent effect | viability at 20 µM [35]: 68.3% | Activity [36]: 1.1% | Activity [37]: 7.24%
